Test results: ChEMBL document CHEMBL4673243, “Discovery of 9-Cyclopropylethynyl-2-((S)-1-[1,4]dioxan-2-ylmethoxy)-6,7-dihydropyrimido[6,1-a]isoquinolin-4-one (GLPG1205), a Unique GPR84 Negative Allosteric Modulator Undergoing Evaluation in a Phase II Clinical Trial” (J Med Chem, 2020)
pIC50: −log10 of the molar value. In brackets after ≈: the same amount, converted by molar mass.

Tests used:
Cytochrome P450 3A4 [1] = biological target: T1, Cytochrome P450 3A4 (Homo sapiens, UniProt P08684); test: Inhibition of CYP3A4 in human liver microsomes using midazolam as substrate and in presence of co-factor preincubated for 20 mins followed by substrate addition by LC-MS/MS analysis
in vivo [2] = settings: Balb/c, mouse, plasma, po, 3 mg/kg
in vivo [3] = settings: male, Sprague-Dawley, rat, po
in vitro [4] = settings: human, cryopreserved hepatocytes
in vivo [5] = settings: CD1, mouse, po, 5 mg/kg
in vivo [6] = settings: Balb/cj, mouse, plasma, po, 10 mg/kg
[7] = Half-life in plasma of Balb/c mouse model of DSS-induced colitis at 10 mg/kg, po administered using PEG-200/water formulation starting from day 1 to 11 measured by LC-MS analysis
in vivo [8] = settings: Beagle, dog, po
in vivo [9] = settings: Balb/c, mouse, plasma, po, 3 mg/kg; remark: listed apart in the source
in vivo [10] = settings: Beagle, dog, po; remark: listed apart in the source
[11] = Initial plasma concentration in CD1 mouse at 1 mg/kg, iv administered as single bolus dose using PEG-200/saline formulation measured after 24 hrs by LC-MS/MS analysis
[12] = Half-life in male Sprague-Dawley rat at 0.5 mg/kg, iv administered as single bolus dose using PEG-200/NaCl formulation measured after 24 hrs by LC-MS/MS analysis; settings: in vivo
in vivo [13] = settings: CD1, mouse, po, 5 mg/kg; remark: listed apart in the source
in vivo [14] = settings: male, Sprague-Dawley, rat, po; remark: listed apart in the source
in vivo [15] = settings: Beagle, dog, po; remark: listed apart in the source
Description: Half life in Beagle dog at 2.5 mg/kg, po administered as single dose via gavage by LC-MS/MS analysis

[16] = Clearance in male Sprague-Dawley rat at 0.5 mg/kg, iv administered as single bolus dose using PEG-200/NaCl formulation measured after 24 hrs by LC-MS/MS analysis; settings: in vivo
in vivo [17] = settings: male, Sprague-Dawley, rat, po; remark: listed apart in the source
[18] = Initial plasma concentration in male Sprague-Dawley rat at 0.5 mg/kg, iv administered as single bolus dose using PEG-200/NaCl formulation measured after 24 hrs by LC-MS/MS analysis
in vitro [19] = settings: dog, cryopreserved hepatocytes
Mus musculus = organism: Mus musculus; test: Antiinflammatory activity in Balb/cj mouse model of DSS-induced colitis assessed as minimum effective dose; settings: read-out: MED
Cytochrome P450 3A4 [20] = biological target: T1, Cytochrome P450 3A4; test: Time-dependent inhibition of CYP3A4 in human liver microsomes using testosterone as substrate and in presence of co-factor by LC-MS/MS analysis
in vivo [21] = settings: male, Sprague-Dawley, rat, po; remark: listed apart in the source
Description: Half-life in male Sprague-Dawley rat at 2.5 mg/kg, po administered as single gavage dose using PEG-200/water formulation measured after 24 hrs by LC-MS/MS analysis

physchem = settings: aqueous solution with 2% DMSO, pH 3
Cytochrome P450 1A2 = biological target: T2, Cytochrome P450 1A2 (Homo sapiens, UniProt P05177); test: Inhibition of CYP1A2 in human liver microsomes using probe substrate and in presence of co-factor preincubated for 20 mins followed by substrate addition by LC-MS/MS analysis
T2 sequence (P05177 whole entry): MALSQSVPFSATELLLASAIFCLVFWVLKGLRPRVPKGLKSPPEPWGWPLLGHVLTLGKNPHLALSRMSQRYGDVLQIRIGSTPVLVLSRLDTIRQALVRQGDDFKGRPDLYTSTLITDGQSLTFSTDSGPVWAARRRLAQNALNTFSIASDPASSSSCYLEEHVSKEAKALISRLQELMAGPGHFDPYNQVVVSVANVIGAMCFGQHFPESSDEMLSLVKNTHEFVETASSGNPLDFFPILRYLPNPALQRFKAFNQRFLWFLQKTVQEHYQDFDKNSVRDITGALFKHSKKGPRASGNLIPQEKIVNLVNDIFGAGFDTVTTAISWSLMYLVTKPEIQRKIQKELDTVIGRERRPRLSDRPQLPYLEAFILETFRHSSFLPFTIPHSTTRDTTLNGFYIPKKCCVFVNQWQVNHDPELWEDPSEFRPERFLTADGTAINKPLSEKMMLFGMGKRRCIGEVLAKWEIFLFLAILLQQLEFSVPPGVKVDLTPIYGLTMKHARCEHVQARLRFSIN

[22] = Half-life in CD1 mouse at 1 mg/kg, iv administered as single bolus dose using PEG-200/saline formulation measured after 24 hrs by LC-MS/MS analysis; settings: in vivo
[23] = Half life in Beagle dog at 0.5 mg/kg, iv administered as 10 mins infusion via catheter by LC-MS/MS analysis; settings: in vivo
[24] = Volume of distribution at steady state in Beagle dog at 0.5 mg/kg, iv administered as 10 mins infusion via catheter by LC-MS/MS analysis; settings: in vivo
[25] = biological target: Cytochrome P450 2D6 (Homo sapiens) (UniProt P10635)
[26] = Plasma protein binding in human at 5 uM measured after 4 hrs by LC-MS/MS analysis
[27] = Apparent permeability from apical to basolateral in human Caco2 cells at 10 uM measured after 60 mins by lucifer yellow dye based LC-MS/MS analysis; settings: Caco-2
in vivo [28] = settings: Beagle, dog, iv, 0.5 mg/kg
[29] = Volume of distribution at steady state in CD1 mouse at 1 mg/kg, iv administered as single bolus dose using PEG-200/saline formulation measured after 24 hrs by LC-MS/MS analysis; settings: in vivo
[30] = biological target: Cytochrome P450 2C9 (Homo sapiens) (UniProt P11712)
Neutrophil = test: Inhibition of dog neutrophil cell migration; settings: Canis lupus familiaris
[31] = Half-life in plasma of Balb/c mouse model of DSS-induced colitis at 3 mg/kg, po administered using PEG-200/water formulation starting from day 1 to 11 measured by LC-MS analysis
[32] = Clearance in Beagle dog at 0.5 mg/kg, iv administered as 10 mins infusion via catheter by LC-MS/MS analysis; settings: in vivo
[33] = Plasma protein binding in dog at 5 uM measured after 4 hrs by LC-MS/MS analysis
in vivo [34] = settings: CD1, mouse, po, 5 mg/kg; remark: listed apart in the source
in vivo [35] = settings: Balb/c, mouse, plasma, po, 3 mg/kg; remark: listed apart in the source
in vitro [36] = settings: mouse, liver microsomes
in vitro [37] = settings: rat, cryopreserved hepatocytes
in vivo [38] = settings: Beagle, dog, po; remark: listed apart in the source

T1 sequence (P08684 whole entry): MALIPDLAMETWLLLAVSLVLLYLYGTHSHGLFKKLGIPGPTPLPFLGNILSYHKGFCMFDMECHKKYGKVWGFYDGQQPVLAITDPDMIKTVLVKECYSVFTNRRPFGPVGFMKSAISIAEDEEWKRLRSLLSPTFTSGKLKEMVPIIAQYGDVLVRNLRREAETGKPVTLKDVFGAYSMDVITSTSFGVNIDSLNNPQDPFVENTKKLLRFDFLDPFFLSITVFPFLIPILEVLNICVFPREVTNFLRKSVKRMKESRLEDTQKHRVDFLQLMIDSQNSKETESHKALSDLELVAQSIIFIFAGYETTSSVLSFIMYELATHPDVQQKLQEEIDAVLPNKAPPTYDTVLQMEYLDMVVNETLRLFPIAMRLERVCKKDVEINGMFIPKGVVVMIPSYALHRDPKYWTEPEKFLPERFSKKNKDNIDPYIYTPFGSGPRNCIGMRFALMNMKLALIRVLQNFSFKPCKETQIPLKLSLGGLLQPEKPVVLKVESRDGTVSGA
Chain of Cytochrome P450 2D6 (Homo sapiens) (P10635 whole entry, looked up): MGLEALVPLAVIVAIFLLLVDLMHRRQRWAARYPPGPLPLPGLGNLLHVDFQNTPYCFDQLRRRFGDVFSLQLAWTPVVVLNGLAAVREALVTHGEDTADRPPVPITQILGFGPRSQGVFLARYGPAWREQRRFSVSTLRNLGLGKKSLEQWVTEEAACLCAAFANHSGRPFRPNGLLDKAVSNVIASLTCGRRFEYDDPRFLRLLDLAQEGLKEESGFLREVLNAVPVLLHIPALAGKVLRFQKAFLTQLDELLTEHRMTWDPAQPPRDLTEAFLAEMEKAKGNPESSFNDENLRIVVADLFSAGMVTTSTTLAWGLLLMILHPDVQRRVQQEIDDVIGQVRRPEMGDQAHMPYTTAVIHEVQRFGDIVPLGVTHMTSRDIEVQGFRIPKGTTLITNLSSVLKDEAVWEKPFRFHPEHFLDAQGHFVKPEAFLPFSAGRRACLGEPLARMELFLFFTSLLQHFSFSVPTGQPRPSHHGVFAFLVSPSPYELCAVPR
Chain of Cytochrome P450 2C9 (Homo sapiens) (P11712 whole entry, looked up): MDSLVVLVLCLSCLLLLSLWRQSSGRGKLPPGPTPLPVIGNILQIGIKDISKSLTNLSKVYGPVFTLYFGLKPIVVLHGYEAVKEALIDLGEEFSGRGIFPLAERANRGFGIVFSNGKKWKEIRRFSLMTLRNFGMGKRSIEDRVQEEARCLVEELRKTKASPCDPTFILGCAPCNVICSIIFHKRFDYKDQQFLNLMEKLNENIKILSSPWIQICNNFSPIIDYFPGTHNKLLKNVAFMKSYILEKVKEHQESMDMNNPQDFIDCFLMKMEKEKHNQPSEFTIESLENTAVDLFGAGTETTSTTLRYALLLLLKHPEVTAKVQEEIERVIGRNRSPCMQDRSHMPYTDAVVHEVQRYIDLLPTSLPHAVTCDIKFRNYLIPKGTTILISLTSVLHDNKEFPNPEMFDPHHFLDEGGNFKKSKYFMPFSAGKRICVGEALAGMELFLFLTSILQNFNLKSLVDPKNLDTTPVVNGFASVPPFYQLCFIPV

SMILES: O=c1nc(OC[C@@H]2COCCO2)cc2n1CCc1cc(C#CC3CC3)ccc1-2 [GLPG-1205]
- pIC50 (Cytochrome P450 3A4 [1]): < 4.30
- AUC(0-t) at 24 h (in vivo [2]): 5560 ng·h/mL
- Cmax at 24 h (in vivo [3]): 1160 ng/mL
- half-life at 1 µM (in vitro [4]): > 3.33 h
- bioavailability at 24 h (in vivo [5]): > 100%
- Cmax (in vivo [6]): 8140 ng/mL
- half-life [7]: 2.3 h
- Tmax (in vivo [8]): 0.5 h
- Cmax (in vivo [9]): 1840 ng/mL
- bioavailability (in vivo [10]): > 100%
- C0 at 24 h [11]: 1230 ng/mL
- half-life at 24 h [12]: 1 h
- AUC(0-t) at 24 h (in vivo [13]): 15300 ng·h/mL
- AUC(0-t) at 24 h (in vivo [14]): 4470 ng·h/mL
- half-life (in vivo [15]): 2 h
- clearance at 24 h [16]: 11.7 mL/min/kg
- bioavailability at 24 h (in vivo [17]): > 100%
- C0 at 24 h [18]: 395 ng/mL
- CLint scaled at 1 µM (in vitro [19]): < 24.2 mL/min/kg
- minimal effective dose (Mus musculus): 3 mg/kg
- pIC50 (Cytochrome P450 3A4 [20]): < 4.30
- half-life at 24 h (in vivo [21]): 1.3 h
- solubility (physchem): 113 µg/mL (≈ 299 µM)
- pIC50 (Cytochrome P450 1A2): < 4.00
- half-life at 24 h [22]: 0.6 h
- half-life at […] [23]: 1.4 h
- Vd at […] [24]: 2 L/kg
- pIC50 [25]: < 4.00
- fraction unbound at 4 h, 5 µM [26]: 0.028
- Papp A→B at 1 h, 10 µM [27]: 41.9 ×10⁻⁶ cm/s
- AUC(0-t) at […] (in vivo [28]): 410 ng·h/mL
- Vd at 24 h [29]: 0.6 L/kg
- pIC50 [30]: 4.46
- pIC50 (Neutrophil): 7.12
- half-life [31]: 2.9 h
- clearance at […] [32]: 20 mL/min/kg
- fraction unbound at 4 h, 5 µM [33]: 0.065
- Tmax at 24 h (in vivo [34]): 0.5 h
- Tmax (in vivo [35]): 1 h
- CLint scaled at 0.5 h, 1 µM (in vitro [36]): 133 mL/min/kg
- CLint scaled at 1 µM (in vitro [37]): < 33.3 mL/min/kg
- Cmax (in vivo [38]): 558 ng/mL
